According to PMC10065799, “High-throughput profiling of sequence recognition by tyrosine kinases and SH2 domains using bacterial peptide display” (eLife, 2023):

Target: T1, c-Abl kinase domain (Mus musculus, UniProt P00520)
T1 sequence (P00520 242-493 limits assumed): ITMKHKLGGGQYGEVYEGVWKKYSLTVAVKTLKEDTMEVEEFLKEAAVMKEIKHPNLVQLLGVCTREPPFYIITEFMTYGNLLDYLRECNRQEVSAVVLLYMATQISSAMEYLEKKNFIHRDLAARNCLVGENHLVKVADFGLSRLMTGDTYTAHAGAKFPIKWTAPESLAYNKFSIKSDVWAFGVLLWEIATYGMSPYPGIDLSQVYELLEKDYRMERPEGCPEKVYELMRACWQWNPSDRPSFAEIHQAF
Test: pTyr-Var library bacterial peptide display kinase screen (enrichment scores)
Assay type: biochemical
Conditions: fig5-data2, sheet "Abl"; Screen for the variant/reference peptide pair, pTyr-Var library

Point of comparison: FQRITYHNWRH [PDE6B_Y556_R552Q_YF], Screen 0.8312. Against it:
- FSIDFYRVGGH [NTRK2_Y707_T704I_YF] — lower, -1.897
- SGADSYEMEED [EGFR_Y316_C311S] — higher, 1.025
- IGHGSYAKVLL [PRKCZ_Y263_R260H] — lower, 0.1947
- KKLAEYGPQGK [CLCA1_Y147_R152K] — lower, 0.7729
- RQQEVYLLFKQ [RARRES1_Y159_D158V_YF] — higher, 1.344
- LLQAEYWHDPI [PPT1_Y185_V181L] — higher, 0.8908
- CEAVEYLESKQ [BTK_Y511_M509V] — higher, 1.602
- ERIEFYELNKK [PMM2_Y145_D148N] — lower, -0.6166
- LVQAEYWHDRI [PPT1_Y185_P189R] — lower, 0.6024
- MIHSAYALGGL [CPS1_Y590_R587H] — lower, -0.66
- LEVETYRRLLD [KRT12_Y429_I426V] — lower, 0.412
- IPTPAYQSLPA [PDCD6IP_Y727_S730L] — lower, -0.8712
- RVFIKYLPEWT [PSEN1_Y240_L235R] — lower, 0.4533
- RFGRKYKKVRF [F8_Y442_I438F] — lower, -0.368
- HVSISYDIPLT [GAB1_Y307_P311L] — higher, 1.089
- FIATQYSLCPR [LBR_Y166_R169C_YF] — lower, -1.302
- WQQQSYLDSEI [CTNNB1_Y30_G34E] — higher, 2.603
- SLIDGYFRLTE [JAK2_Y372_A377E_YF] — lower, -1.303
- DRLASYLDKLR [KRT12_Y139_V143L] — lower, 0.402
- IMVFVYCRVFQ [ADRB2_Y219_S220C] — higher, 1.764
- KSMFVYCTPNK [ATP2A2_Y497_S495F] — higher, 1.832
- FAANFYKLLGN [ROR2_Y646_D644N_YF] — higher, 1.009
- FLAVGYHKPRI [IDS_Y225_H229R] — lower, -0.1841
- GVMLLYFGRFN [ADGRD1_Y85_T82M_YF] — higher, 0.9615

Same assay, conditions: sheet "Abl"; effect of variant peptide relative to its reference peptide in pTyr-Var library screen (enrichment)

Point of comparison: RLGDLYKEEMR [VIM_Y150_E151K], Screen 1.898. Against it:
- KDQPDYKFQPR [SOX9_Y172_H169Q_YF] — lower, -0.1662
- IEPCIYIPEDD [XPNPEP3_Y455_G453C] — lower, -2.393

Target: c-Src kinase domain (Homo sapiens, UniProt P12931)
Test: as above
Assay type: biochemical
Conditions: pTyr-Var library screen with c-Src; sheet "Src substrates": annotated Src substrate sites, 11-residue peptide SITE_+/-5_AA; mean

With EALDFYGEVRT the “Enrichment score (mean)” value was 1.015.

Same assay, conditions: sheet "Src"; effect of the variant peptide relative to its reference peptide in the pTyr-Var library screen

Point of comparison: RMDGKYACSFT [FLNB_Y704_T703K_YF], Screen -2.226. Against it:
- VITTLYIGFLG [KCNQ1_Y267_L262V] — higher, -0.844
- IPGGIYNADLN [CST4_Y35_D36N] — higher, -0.256
- DCAAIYGNEPD [AKR1A1_Y50_E55D] — higher, 0.2268
- PFAEPYADFGG [APBA1_Y187_S184A_YF] — higher, -0.451
- RKPDIYGRLAS [MCM4_Y459_E460G] — higher, 0.1835
- FKEIVYAVSSD [DCX_Y70_G67E] — higher, 2.95
- KVALVYGQMNQ [ATP5F1B_Y269_E274Q] — higher, 0.6915
- LITILYIGFLG [KCNQ1_Y267_T265I] — higher, -1.468
- FQKNIYSEEPR [LMNA_Y211_L215P] — higher, -0.2654
- CEETFYTMKMN [MASP2_Y401_V405M] — higher, 0.9168

Same assay, conditions: sheet "Src"; variant peptide versus its reference peptide in the pTyr-Var library screen

Point of comparison: PLQNTYNFNVL [SLC4A1_Y553_K551N_YF], Screen 2.669. Against it:
- SDVDLYQVRIA [PSMD9_Y70_T74I] — lower, 0.1663
- PLDGEYFTLHI [TP53_Y327_Q331H] — lower, -0.3825
- LRFDSYWSFCN [SLC20A2_Y433_S434W_YF] — lower, 2.108
- LITLVYGCSRQ [TMPRSS6_Y290_S288L] — lower, -0.7056
- RGDVIYKGFED [NFU1_Y194_G189R] — lower, -0.4435
- IDSTPYGQWFE [RPS8_Y109_R110G_YF] — higher, 3.305
- PLDGEYFTLRI [TP53_Y327_Q331R] — lower, -0.2935
- DFCDLYGGEKF [PTPN11_Y66_Y63C_YF] — lower, -0.008516
- SILAVYSKDIF [PANK2_Y400_N404I_YF] — lower, -0.2771
- MVSLFYGTAIF [OR10C1_Y251_L255I] — lower, -0.3478
- SVTCPYSPALN [TP53_Y126_T125P] — lower, 1.73
- HDRNTYEKFLE [TF_Y666_G671E_YF] — lower, -1.841
- QGCGIYKDFFR [PLA2G2D_Y82_S80G_YF] — lower, -0.1018
